# Test results as given in ChEMBL document CHEMBL5465560, “Selectivity Literature for EUbOPEN Chemogenomic Library” (2024).
# Legend:
# [1] = biological target: T1, Cytoplasmic tyrosine-protein kinase BMX (Homo sapiens) (UniProt P51813); test: Selectivity interaction (KinaseProfiler screening (Millipore)) EUB0000601a BMX; settings: at 3 µM
# T1 sequence (whole entry): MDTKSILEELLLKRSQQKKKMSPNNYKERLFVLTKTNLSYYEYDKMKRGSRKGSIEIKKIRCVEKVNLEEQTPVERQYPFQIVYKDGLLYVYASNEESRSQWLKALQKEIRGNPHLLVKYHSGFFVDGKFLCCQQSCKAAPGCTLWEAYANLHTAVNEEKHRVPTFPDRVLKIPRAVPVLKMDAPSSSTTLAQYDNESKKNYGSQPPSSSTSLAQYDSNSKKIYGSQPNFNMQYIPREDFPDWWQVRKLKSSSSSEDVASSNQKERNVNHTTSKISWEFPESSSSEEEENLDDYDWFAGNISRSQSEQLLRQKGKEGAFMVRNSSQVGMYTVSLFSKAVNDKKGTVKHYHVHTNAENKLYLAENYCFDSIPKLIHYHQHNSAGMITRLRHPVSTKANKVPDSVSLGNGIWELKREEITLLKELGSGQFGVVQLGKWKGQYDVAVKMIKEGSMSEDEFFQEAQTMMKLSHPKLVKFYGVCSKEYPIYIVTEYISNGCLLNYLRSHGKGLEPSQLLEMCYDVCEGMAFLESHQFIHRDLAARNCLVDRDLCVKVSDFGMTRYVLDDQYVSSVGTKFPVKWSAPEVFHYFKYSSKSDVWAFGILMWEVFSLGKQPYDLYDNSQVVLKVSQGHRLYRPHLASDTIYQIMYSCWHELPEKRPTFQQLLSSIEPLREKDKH
# [2] = biological target: Serine/threonine-protein kinase 32C (Homo sapiens) (UniProt Q86UX6); test: Selectivity interaction (KinomeScan (DiscoverX)) EUB0001079a STK32C; settings: at 1 µM
# Sequence of Serine/threonine-protein kinase 32C (Homo sapiens) (Q86UX6 whole entry): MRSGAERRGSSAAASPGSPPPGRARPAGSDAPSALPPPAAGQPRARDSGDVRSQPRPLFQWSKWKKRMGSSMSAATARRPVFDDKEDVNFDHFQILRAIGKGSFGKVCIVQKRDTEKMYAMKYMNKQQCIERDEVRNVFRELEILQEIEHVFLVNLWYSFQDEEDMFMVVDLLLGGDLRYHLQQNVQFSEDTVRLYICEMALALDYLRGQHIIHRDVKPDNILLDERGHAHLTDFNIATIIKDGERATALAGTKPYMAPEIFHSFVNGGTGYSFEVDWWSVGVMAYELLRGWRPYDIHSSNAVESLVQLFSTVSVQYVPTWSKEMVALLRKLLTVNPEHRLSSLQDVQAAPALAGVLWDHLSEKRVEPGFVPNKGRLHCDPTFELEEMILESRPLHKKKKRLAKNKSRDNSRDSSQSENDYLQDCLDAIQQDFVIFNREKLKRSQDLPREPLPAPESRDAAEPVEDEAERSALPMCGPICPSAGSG
# [3] = biological target: Dual specificity mitogen-activated protein kinase kinase 1 (Homo sapiens, UniProt Q02750); test: Selectivity interaction (ActivX KiNativ screen (kinase selectivity in THP-1 cell lysates)) EUB0000639a MAP2K1; type: subcellular; settings: lysate, at 0.01 µM
# Sequence of Dual specificity mitogen-activated protein kinase kinase 1 (Q02750 whole entry): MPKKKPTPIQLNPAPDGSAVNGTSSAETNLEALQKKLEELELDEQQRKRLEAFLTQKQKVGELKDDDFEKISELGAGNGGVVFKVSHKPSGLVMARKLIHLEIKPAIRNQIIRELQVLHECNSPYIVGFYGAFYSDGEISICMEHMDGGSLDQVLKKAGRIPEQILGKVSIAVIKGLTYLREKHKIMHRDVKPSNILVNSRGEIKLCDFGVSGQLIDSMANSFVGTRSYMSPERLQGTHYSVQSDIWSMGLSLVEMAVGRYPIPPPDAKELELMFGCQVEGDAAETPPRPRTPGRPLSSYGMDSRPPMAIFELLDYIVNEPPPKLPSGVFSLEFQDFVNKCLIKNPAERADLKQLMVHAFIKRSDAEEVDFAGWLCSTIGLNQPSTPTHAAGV
# [4] = biological target: Wee1-like protein kinase (Homo sapiens) (UniProt P30291); test: Selectivity interaction (Kinase panel (Invitrogen)) EUB0000639a WEE1; settings: at 200 nM
# Sequence of Wee1-like protein kinase (Homo sapiens) (P30291 whole entry, looked up): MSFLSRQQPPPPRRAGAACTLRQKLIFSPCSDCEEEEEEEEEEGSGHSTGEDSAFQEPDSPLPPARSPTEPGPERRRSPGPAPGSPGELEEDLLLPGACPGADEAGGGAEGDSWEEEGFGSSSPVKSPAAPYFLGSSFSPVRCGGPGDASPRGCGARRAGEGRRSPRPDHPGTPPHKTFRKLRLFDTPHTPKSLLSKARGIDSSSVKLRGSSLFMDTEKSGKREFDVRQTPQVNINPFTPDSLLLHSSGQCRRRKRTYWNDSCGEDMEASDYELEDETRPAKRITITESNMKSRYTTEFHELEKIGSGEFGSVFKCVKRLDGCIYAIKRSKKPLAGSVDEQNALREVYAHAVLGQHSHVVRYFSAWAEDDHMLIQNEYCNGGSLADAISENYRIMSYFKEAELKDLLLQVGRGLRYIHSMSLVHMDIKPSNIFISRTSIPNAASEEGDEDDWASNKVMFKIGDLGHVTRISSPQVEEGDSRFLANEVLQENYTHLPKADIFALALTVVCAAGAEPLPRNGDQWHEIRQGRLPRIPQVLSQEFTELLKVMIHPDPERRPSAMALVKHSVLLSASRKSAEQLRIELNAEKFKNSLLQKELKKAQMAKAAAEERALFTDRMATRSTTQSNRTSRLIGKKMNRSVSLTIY
# [5] = biological target: Serine/threonine-protein kinase 32C (Homo sapiens) (UniProt Q86UX6); test: Selectivity interaction (KinomeScan (DiscoverX)) EUB0000595a STK32C; settings: at 10 µM
# [6] = biological target: T2, Serine/threonine-protein kinase ULK1 (Homo sapiens) (UniProt O75385); test: Selectivity interaction (Ambit KINOMEscan and KiNATiv profiling in Jurkat cells) EUB0000090b ULK1; type: cell-based; settings: at 1 µM
# T2 sequence (whole entry): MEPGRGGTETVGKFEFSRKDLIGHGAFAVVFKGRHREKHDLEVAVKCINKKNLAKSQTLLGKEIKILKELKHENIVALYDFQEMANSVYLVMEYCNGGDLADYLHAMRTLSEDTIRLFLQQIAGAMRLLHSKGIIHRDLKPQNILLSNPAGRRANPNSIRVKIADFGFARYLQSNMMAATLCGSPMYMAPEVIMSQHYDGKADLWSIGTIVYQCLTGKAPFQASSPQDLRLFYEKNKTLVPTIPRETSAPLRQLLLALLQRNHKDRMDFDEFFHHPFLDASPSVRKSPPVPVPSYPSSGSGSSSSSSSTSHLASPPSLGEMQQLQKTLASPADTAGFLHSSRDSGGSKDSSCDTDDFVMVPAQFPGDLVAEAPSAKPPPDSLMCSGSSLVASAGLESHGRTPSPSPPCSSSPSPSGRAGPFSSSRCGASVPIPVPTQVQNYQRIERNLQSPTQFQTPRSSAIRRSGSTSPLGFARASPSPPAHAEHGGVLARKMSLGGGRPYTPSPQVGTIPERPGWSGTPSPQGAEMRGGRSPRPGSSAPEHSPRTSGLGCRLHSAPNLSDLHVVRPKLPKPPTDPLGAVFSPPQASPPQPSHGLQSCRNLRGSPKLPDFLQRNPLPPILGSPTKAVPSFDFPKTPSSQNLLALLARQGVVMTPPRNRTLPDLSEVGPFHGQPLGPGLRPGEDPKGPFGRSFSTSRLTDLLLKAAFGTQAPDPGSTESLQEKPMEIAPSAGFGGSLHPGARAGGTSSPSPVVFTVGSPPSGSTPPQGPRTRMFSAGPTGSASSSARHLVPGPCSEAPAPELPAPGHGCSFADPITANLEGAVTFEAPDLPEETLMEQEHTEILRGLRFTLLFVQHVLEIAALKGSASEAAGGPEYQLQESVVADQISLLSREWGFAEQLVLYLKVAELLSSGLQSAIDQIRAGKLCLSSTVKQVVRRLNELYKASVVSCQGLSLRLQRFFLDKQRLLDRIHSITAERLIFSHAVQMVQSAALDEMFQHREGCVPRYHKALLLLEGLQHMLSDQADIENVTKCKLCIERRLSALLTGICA
# [7] = biological target: Interferon-induced, double-stranded RNA-activated protein kinase (Homo sapiens) (UniProt P19525); test: Selectivity interaction (KinomeScan (DiscoverX)) EUB0000045b EIF2AK2
# Sequence of Interferon-induced, double-stranded RNA-activated protein kinase (Homo sapiens) (P19525 whole entry): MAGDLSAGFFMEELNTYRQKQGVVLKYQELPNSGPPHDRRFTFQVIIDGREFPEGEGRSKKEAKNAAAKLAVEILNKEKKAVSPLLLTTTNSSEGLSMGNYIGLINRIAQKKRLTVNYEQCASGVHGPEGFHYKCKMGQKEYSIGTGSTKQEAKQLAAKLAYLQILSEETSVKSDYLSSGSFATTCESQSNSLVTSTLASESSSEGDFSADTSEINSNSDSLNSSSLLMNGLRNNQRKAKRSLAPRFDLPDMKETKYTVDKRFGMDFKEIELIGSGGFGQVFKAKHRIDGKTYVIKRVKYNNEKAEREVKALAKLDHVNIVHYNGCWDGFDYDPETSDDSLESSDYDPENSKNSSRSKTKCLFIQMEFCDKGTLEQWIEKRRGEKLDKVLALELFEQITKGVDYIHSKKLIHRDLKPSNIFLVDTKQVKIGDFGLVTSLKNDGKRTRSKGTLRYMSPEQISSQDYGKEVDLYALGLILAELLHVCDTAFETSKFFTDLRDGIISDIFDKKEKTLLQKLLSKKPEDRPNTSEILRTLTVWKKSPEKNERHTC
# [8] = biological target: T3, Mitogen-activated protein kinase kinase kinase 3 (Homo sapiens) (UniProt Q99759); test: Selectivity interaction (KinomeScan (DiscoverX)) EUB0000045b MAP3K3
# T3 sequence (whole entry): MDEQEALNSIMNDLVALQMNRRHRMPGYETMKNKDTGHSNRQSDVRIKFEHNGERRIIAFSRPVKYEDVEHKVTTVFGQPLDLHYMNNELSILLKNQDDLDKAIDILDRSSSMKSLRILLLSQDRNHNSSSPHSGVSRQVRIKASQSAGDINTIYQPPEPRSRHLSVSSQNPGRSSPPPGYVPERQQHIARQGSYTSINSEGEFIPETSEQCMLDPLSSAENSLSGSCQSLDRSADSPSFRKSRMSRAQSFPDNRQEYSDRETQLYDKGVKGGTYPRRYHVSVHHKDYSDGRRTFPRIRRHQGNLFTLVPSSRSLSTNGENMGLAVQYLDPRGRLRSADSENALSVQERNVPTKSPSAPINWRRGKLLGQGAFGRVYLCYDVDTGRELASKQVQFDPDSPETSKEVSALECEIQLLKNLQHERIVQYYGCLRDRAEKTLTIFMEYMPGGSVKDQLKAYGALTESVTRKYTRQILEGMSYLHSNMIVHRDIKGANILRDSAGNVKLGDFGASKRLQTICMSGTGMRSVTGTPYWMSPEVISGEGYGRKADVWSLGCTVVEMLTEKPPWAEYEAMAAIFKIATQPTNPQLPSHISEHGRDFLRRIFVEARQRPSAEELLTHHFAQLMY
smiles,measurement,setting,value
CCc1cc(Nc2nccc(-c3c(-c4ccc(OC)c(C(=O)Nc5c(F)cccc5F)c4)nc4ccccn34)n2)c(OC)cc1N1CCC(N2CCN(S(C)(=O)=O)CC2)CC1,% of inhibition,[1],71%
Nc1cnc(N2CCc3cc(S(=O)(=O)Nc4c(F)cc(Cl)cc4F)cc(N4CCCC4=O)c32)nc1 [TP-020n],% of control,[2],100%
CC[C@@H]1[C@H](F)C(=O)N[C@@H]1COc1nccc2cc(C(N)=O)c(OC)cc12 [ZIMLOVISERTIB],% of inhibition,[3],-1.6%
same,% of inhibition,[4],-0.606%
COCC(=O)NC/C=C/c1ccc2ncnc(Nc3ccc(Oc4ccc(C)nc4)c(C)c3)c2c1 [CP-724714],% of control,[5],86%
CN(C)C/C=C/C(=O)Nc1ccc(C(=O)N2CCCC(Nc3ncc(Cl)c(-c4c[nH]c5ccccc45)n3)C2)cc1 (stereo not given),% of control,[6],88%
C=CC(=O)Nc1cc(-n2c(=O)ccc3cnc4ccc(-c5ccc(NS(C)(=O)=O)cc5)cc4c32)ccc1C,% of control,[7]; at 1 µM,100%
same,% of control,[7]; at 10 µM,71%
same,% of control,[8]; at 1 µM,100%
same,% of control,[8]; at 10 µM,79%
